Literature values as cited in patent US7393692B2, “SERS method for rapid pharmacokinetic analysis of drugs in saliva” (Real-Time Analyzers, Inc., priority 2004, dated 2008).

What was measured:
[1] = patient dependent
[2] = biological target: T1, dihydropyrimidine dehydrogenase (DPD) (Homo sapiens, UniProt Q12882); conditions: patient with the normal amount of DPD
T1 construct: endogenous in cells; host or cells: human individuals / hypothetical cancer patients (in vivo metabolism)
T1 sequence (Q12882 4-1025): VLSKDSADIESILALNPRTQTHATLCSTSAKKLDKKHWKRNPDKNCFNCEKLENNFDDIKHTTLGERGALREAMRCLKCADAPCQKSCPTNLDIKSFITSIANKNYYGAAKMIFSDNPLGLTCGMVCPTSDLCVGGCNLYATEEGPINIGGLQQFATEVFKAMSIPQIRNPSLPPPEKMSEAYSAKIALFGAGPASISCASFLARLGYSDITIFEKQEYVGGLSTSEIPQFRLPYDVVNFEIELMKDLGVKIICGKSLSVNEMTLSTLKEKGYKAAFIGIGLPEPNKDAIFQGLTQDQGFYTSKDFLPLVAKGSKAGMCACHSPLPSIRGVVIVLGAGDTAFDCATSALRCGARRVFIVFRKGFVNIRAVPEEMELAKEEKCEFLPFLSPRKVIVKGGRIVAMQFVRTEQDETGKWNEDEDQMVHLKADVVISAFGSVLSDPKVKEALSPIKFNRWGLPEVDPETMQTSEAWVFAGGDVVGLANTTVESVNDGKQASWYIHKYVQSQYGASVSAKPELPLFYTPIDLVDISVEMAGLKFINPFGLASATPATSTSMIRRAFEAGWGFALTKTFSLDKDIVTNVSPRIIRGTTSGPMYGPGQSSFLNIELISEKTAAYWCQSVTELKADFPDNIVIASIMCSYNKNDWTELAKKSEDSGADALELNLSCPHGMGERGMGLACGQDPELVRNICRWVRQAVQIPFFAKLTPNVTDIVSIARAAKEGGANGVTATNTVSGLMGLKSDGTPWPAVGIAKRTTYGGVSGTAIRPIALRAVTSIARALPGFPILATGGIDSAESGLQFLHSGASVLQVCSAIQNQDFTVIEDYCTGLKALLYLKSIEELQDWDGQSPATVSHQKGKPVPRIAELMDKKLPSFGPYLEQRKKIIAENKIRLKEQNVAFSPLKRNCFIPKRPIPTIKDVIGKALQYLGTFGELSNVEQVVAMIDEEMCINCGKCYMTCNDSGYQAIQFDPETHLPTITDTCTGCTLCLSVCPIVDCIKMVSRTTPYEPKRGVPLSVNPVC

## O=c1[nH]cc(F)c(=O)[nH]1 [5-FU, 5-fluorouracil]
[1]; closely matches plasma
  5-FU concentration in saliva, maximum: 15 to 28 µg/mL
[1]; three hour minimum
  5-FU concentration in saliva, three hour minimum: 0.1 µg/mL
[2]
  5-FU metabolized to 5-FUH2 on average: about 50%
